The values that follow come from patent US7041290B2, “Molecules and methods for inhibiting shedding of KIM-1” (Biogen Idec MA Inc., priority 2001, dated 2006).

Structures are written as SMILES.

The test system of series [1] is shedding of KIM-1, renal carcinoma cells 769-P. As to the kind of experiment: Shedding of KIM-1 in 769-P cell culture, soluble KIM-1 by ELISA. It is filed as cell-based, human. Particulars: 769-P cells, 28 hours; for inhibition of KIM-1 shedding: 32 μM. The method, then:
BB-94 (batismatat) and GM6001 (Ilomastat), are two broad spectrum hydroxamic acid-based zinc metalloproteinase inhibitors which inhibit several matrix metalloproteinases (MMP) (20). BB-94 is also a potent inhibitor of TACE (TNF alpha converting enzyme) (18). The activity of these two inhibitors on the shedding of KIM-1 in cell culture was examined.
(§1) Stock solutions of BB-94 and GM6001 were maintained in DMS0 at a concentration of 70 mM for BB-94 and 2.5 mM for GM6001. Compounds were diluted directly into fresh medium to concentrations ranging from 0.5 μm to 32 μm. Renal carcinoma cells 769-P were grown in RPMI medium supplemented with 10% fetal bovine serum, 10 mM HEPES, and 1 mM sodium pyruvate, and in the presence of various concentrations of BB-94 and GM6001 for 28 hours. […] The amount of soluble KIM-1 released into the extracellular milieu during the 28h-period was measured by ELISA (FIG. 5).
In general terms: ELISA stands for enzyme-linked immunosorbent assay.

In series [2] the test system is Renal carcinoma cells 769-P. As to the kind of experiment: Cell viability with the mitochondria dye MTT. It is filed as cell-based, human. To be noted: end of the 28h-culture period, 0.5 to 32 μm. The method, then:
as §1

On to `CNC(=O)[C@H](Cc1ccccc1)NC(=O)[C@H](CC(C)C)[C@H](CSc1cccs1)C(=O)NO` [BB-94, batismatat], for which, in series [1], the “inhibition of KIM-1 shedding” value is reported as “complete inhibition” and the 50% inhibitory concentration (IC50) (usually the concentration that gives 50% inhibition) is about 1 µM. Moreover, the “cytotoxicity (cell viability, MTT)” value in series [2] was “absence of cytotoxicity”.

`CNC(=O)[C@H](Cc1c[nH]c2ccccc12)NC(=O)[C@@H](CC(=O)NO)CC(C)C` [GM6001, Ilomastat]: the “inhibition of KIM-1 shedding” value in series [1] was “complete inhibition”. The compound also displayed an IC50 in series [1] (Homo sapiens) of about 4 µM. In addition, the “cytotoxicity (cell viability, MTT)” value in series [2] is listed as “absence of cytotoxicity”.
